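48-hour exposure; five concentrations; linearly interpolated endpoints. Definition used: TGI = concentration required for complete inhibition of growth.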
What was measured:
Assay in all cases: NCI tumour cell line growth inhibition, 48 h
[1] = system: IGROV1 ovarian
[2] = system: SK-MEL-5 melanoma
[3] = system: T-47D breast
[4] = system: RXF 393 renal
[5] = system: MALME-3M melanoma
[6] = system: OVCAR-8 ovarian
[7] = system: RPMI-8226 leukemia
[8] = system: SNB-19 CNS
[9] = system: MDA-MB-231 breast
[10] = system: A549 NSCLC
[11] = system: NCI-H23 lung
[12] = system: OVCAR-3 ovarian
[13] = system: SF-268 CNS
[14] = system: A498 renal
[15] = system: SN12C renal
[16] = system: KM12 colon
[17] = system: OVCAR-4 ovarian
[18] = system: HL-60(TB) leukemia
[19] = system: ACHN renal
[20] = system: SK-MEL-28 melanoma
[21] = system: OVCAR-5 ovarian
[22] = system: BT-549 breast
[23] = system: SR leukemia
[24] = system: NCI-H522 lung
[25] = system: UO-31 renal
[26] = system: COLO 205 colon
[27] = system: SF-295 CNS
[28] = system: UACC-257 melanoma
[29] = system: CAKI-1 renal
[30] = system: EKVX NSCLC
[31] = system: MDA-N
[32] = system: NCI/ADR-RES ovarian
[33] = system: CCRF-CEM leukemia
[34] = system: HS 578T breast
[35] = system: MDA-MB-435
[36] = system: K-562 leukemia
[37] = system: SF-539 CNS
[38] = system: HOP-62 NSCLC
[39] = system: UACC-62 melanoma
[40] = system: 786-0 renal
[41] = system: NCI-H226 lung
[42] = system: HCT-15 colon
[43] = system: SK-OV-3 ovarian
[44] = system: HT29 colon
[45] = system: HOP-92 NSCLC
[46] = system: SW-620 colon
[47] = system: MOLT-4 leukemia
[48] = system: U251 CNS
[49] = system: TK-10 renal
[50] = system: NCI-H460 lung
[51] = system: HCT-116 colon
[52] = system: M14 melanoma
[53] = system: MCF7 breast
[54] = system: HCC-2998 colon
[55] = system: SNB-75 CNS
[56] = system: DU-145 prostate
[57] = system: LOX IMVI melanoma
[58] = system: SK-MEL-2 melanoma

CC(=O)O[C@H]1C(=O)[C@@]2(C)[C@H]([C@H](OC(=O)c3cccc(C(F)(F)F)c3)[C@]3(O)C[C@H](OC(=O)[C@H](O)[C@@H](NC(=O)c4ccccc4)c4ccccc4)C(C)=C1C3(C)C)[C@]1(OC(C)=O)CO[C@@H]1C[C@@H]2O
TGI [1]: > 23 µM
TGI [2]: 4.33 µM
TGI [3]: > 25 µM
TGI [4]: 0.809 µM
TGI [5]: 10.5 µM
TGI [6]: 7.61 µM
TGI [7]: 0.0862 µM
TGI [8]: > 25 µM
TGI [9]: > 13.1 µM
TGI [10]: > 25 µM
TGI [11]: > 25 µM
TGI [12]: 8.03 µM
TGI [13]: > 25 µM
TGI [14]: > 13.6 µM
TGI [15]: > 25 µM
TGI [16]: 24.8 µM
TGI [17]: > 18.4 µM
TGI [18]: < 0.0025 µM
TGI [19]: > 9.46 µM
TGI [20]: > 25 µM
TGI [21]: > 10.7 µM
TGI [22]: > 15.5 µM
TGI [23]: 3.72 µM
TGI [24]: 0.0175 µM
TGI [25]: > 15.9 µM
TGI [26]: 3.27 µM
TGI [27]: 13.3 µM
TGI [28]: 8.27 µM
TGI [29]: > 25 µM
TGI [30]: > 25 µM
TGI [31]: < 0.0025 µM
TGI [32]: > 7.02 µM
TGI [33]: 0.368 µM
TGI [34]: 0.0653 µM
TGI [35]: < 0.0025 µM
TGI [36]: 4.85 µM
TGI [37]: 0.0105 µM
TGI [38]: > 14.2 µM
TGI [39]: 8 µM
TGI [40]: 4.49 µM
TGI [41]: 11.6 µM
TGI [42]: > 25 µM
TGI [43]: > 25 µM
TGI [44]: 3.84 µM
TGI [45]: 15.1 µM
TGI [46]: > 16.4 µM
TGI [47]: 3.57 µM
TGI [48]: 0.0196 µM
TGI [49]: 8.88 µM
TGI [50]: > 10.6 µM
TGI [51]: 3.21 µM
TGI [52]: 11.9 µM

Cc1ccc(NN=NCCCCN)cc1
TGI [1]: > 100 µM
TGI [2]: > 100 µM
TGI [3]: > 100 µM
TGI [4]: > 100 µM
TGI [5]: > 100 µM
TGI [6]: > 100 µM
TGI [7]: > 100 µM
TGI [8]: > 100 µM
TGI [53]: > 100 µM
TGI [9]: > 100 µM
TGI [10]: > 100 µM
TGI [54]: > 100 µM
TGI [11]: > 100 µM
TGI [13]: > 100 µM
TGI [14]: > 100 µM
TGI [15]: > 100 µM
TGI [16]: > 100 µM
TGI [17]: > 100 µM
TGI [18]: > 100 µM
TGI [19]: > 100 µM
TGI [21]: > 100 µM
TGI [22]: > 100 µM
TGI [23]: > 100 µM
TGI [24]: > 100 µM
TGI [25]: > 100 µM
TGI [26]: > 100 µM
TGI [27]: > 100 µM
TGI [28]: > 100 µM
TGI [29]: > 100 µM
TGI [30]: > 100 µM
TGI [31]: > 100 µM
TGI [32]: > 100 µM
TGI [33]: > 100 µM
TGI [34]: > 100 µM
TGI [35]: > 100 µM
TGI [37]: > 100 µM
TGI [55]: > 100 µM
TGI [38]: > 100 µM
TGI [39]: > 100 µM
TGI [56]: > 100 µM
TGI [40]: > 100 µM
TGI [57]: > 100 µM
TGI [41]: > 100 µM
TGI [42]: > 100 µM
TGI [43]: > 100 µM
TGI [44]: > 100 µM
TGI [45]: > 100 µM
TGI [46]: > 100 µM
TGI [47]: > 100 µM
TGI [58]: > 100 µM
TGI [49]: > 100 µM
TGI [51]: > 100 µM
TGI [52]: > 100 µM
